Results reported in PubChem BioAssay AID179 (DTP/NCI, 2004).
The source made the active and inactive calls.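 The calls were made as follows: active = compounds giving half or more protection of infected cells from virus-caused growth loss, again on retest; inactive = the rest.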

System: CEM cells HIV-1 protection, formazan growth assay
Experiment: NCI AIDS Antiviral Assay
Conditions: for IC50: measured here: growth of uninfected CEM cells
Outline: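 Human CEM cells, uninfected and HIV-1-infected, received five drug concentrations, and growth was read by soluble formazan assay. Compounds giving at least 50% protection were retested; reproducible 100% protection defined confirmed active.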

SMILES	EC50 [µM]	IC50 [µM]	outcome
CC(=O)NNc1nc(C)c(C(/C=C/c2ccc(NC(C)=O)cc2)=N/NS(=O)(=O)c2ccc(C)cc2)s1	> 57.5	> 57.5	–
O=c1c2ncn(C3CC(O)C(CO)O3)c2nnn1Cc1ccccc1[N+](=O)[O-] (stereo not drawn)	> 200	> 200	–
O=c1ccn(/C=C\c2nc3ccccc3[nH]c2=O)c(=S)[nH]1	> 200	> 200	–
Cc1cc(=O)[nH]c2c1C(=O)c1c(C)cc(=O)n(C)c1C2=O	> 2	0.257	–
O=C1c2cc([N+](=O)[O-])ccc2-c2ccc3c4ccc5c6c(ccc(c7ccc1c2c73)c64)C(=O)c1cc([N+](=O)[O-])ccc1-5	> 100	> 100	–
CCOC(=O)CC1COc2ccc3c(c21)OCO3 (stereo not drawn)	> 525	339	–
CN(C)c1ccc(/C(=N\N)c2ccccc2)cc1	> 200	112	–
Cc1nc2ccccc2nc1CC(=N)c1ccccc1	> 200	61.7	–
CC(=O)OCC(OC(C)=O)C(OC(C)=O)C(OC(C)=O)C(=O)CNn1c(-c2ccccc2Cl)nc2ccc(Br)cc2c1=O (stereo not drawn)	–	–	inactive
S=C(N/N=C(/c1ccccc1)c1ccccn1)N1CCCCC1	> 2	0.0389	–
CCCCCCCCCCCCCCCCCC(=O)OC[C@H](COP(=O)(O)OCCNC(=O)CCC(=O)O)OC(=O)CCCCCCCCCCCCCCCCC	> 50.1	> 50.1	–
[N-]=[N+]=Nc1ccc(S(=O)(=O)Oc2cc(OS(=O)(=O)c3ccc(N=[N+]=[N-])cc3)cc(OS(=O)(=O)c3ccc(N=[N+]=[N-])cc3)c2)cc1	> 4.07	> 4.07	–
CCOC(=O)c1cc(-c2ccccn2)c(=O)n2ccccc12	> 200	49	–
CN1CCN(C2Sc3ccccc3C(=O)N3CCCC23)CC1 (stereo not drawn)	> 126	> 126	–
CC1(CC(=O)O)C(=O)CCCC1=O	–	–	inactive
Nc1nc2cc(Cl)ccc2n1N	> 200	> 200	–
C[N+](C)([O-])CCC=C1c2ccccc2CCc2ccccc21	> 200	105	–
CNC(=O)N(C)CN(C)C(=O)NC	> 479	229	–
C=C1CC[N+]2(CCCCCC)CCCC12 (stereo not drawn)	> 871	126	–
CC#N.CC#N.COC(=O)[C@H]1COC(=O)[N-]1.COC(=O)[C@H]1COC(=O)[N-]1.COC(=O)[C@H]1COC(=O)[N-]1.COC(=O)[C@H]1COC(=O)[N-]1.[Rh+2].[Rh+2]	> 200	> 200	–
O=[N+]([O-])c1cc(C(F)(F)F)cc2c1SC1=Nc3ccccc3CN12	–	–	inactive
CC(NC(=O)C1CCCN1C(=O)OC(C)(C)C)C(=O)OCc1ccccc1 (stereo not drawn)	> 95.5	60.3	–
Cn1c(=O)cc(CC(=O)C(=O)O)c2ccccc21	> 200	148	–

SMILES	EC50 [µM]	IC50 [µM]	outcome
O=S1c2ccccc2S(=O)c2ccccc21 (stereo not drawn)	> 200	> 200	–
CC(C)C1N(N2C(=O)CS(=O)(=O)C2C(C)C)C(=O)CS1(=O)=O (stereo not drawn)	> 200	> 200	–
Cc1cc(C)c2cc(=O)oc-2c(C)c1	> 93.3	> 93.3	–
CC(C)(CN1CCCCC1)C(=O)CC(SCCS(=O)(=O)O)c1ccc(Cl)c(Cl)c1 (stereo not drawn)	> 200	1.2	–
O=C(N[C@@H](c1ccccc1)[C@@H](O)C(=O)OCc1ccc([N+](=O)[O-])cc1)c1ccccc1	> 200	151	–
Nc1nc(N)nc(CC(=O)O)n1	> 200	> 200	–
C1=CC2SSSC2C1 (stereo not drawn)	> 251	> 251	–
O=C1C=C(NCCc2ccccc2)c2ccccc2C1=O	> 36.3	25.1	–
O=c1c(C(c2ccc([N+](=O)[O-])cc2)c2c(O)c3ccccc3n(-c3ccccc3)c2=O)c(O)c2ccccc2n1-c1ccccc1	> 11.7	> 11.7	–
Oc1c(Cl)cc(Cl)c2cccnc12	–	–	inactive
N#C/C(=C\c1ccc(O)c(O)c1)C(=O)NCCCCCCCCCCNC(=O)/C(C#N)=C/c1ccc(O)c(O)c1	> 200	2.75	–
C[C@@]12c3ccc4c(c3C(=O)c3occ(c31)[C@@H](O)C[C@H]2O)CCC4=O	> 200	17.4	–
O=C(Cc1nc(-c2ccccc2)cc(=O)n1-c1ccccc1Cl)c1ccncc1	> 1.35	> 1.35	–
Cc1c(C)c2c(c(N)c1C#N)C(=O)N(N)C2=O	> 200	132	–
C[C@]12CCC3[C@@H](CC[C@@H]4c5nonc5CC[C@]34C)C1CCC2=O (stereo partly drawn)	> 57.5	> 57.5	–
CN1C(=O)N(C)C2(CCN(CCCCCCF)CC2)C1=O	> 200	> 200	–
CNn1c(-c2ccc(C)cc2)n[nH]c1=O	49	56.2	–
O=c1[nH]c(O)c(/C=N/C(=S)NCc2ccccc2)c(=O)[nH]1	> 200	195	–
Cc1ncc(-c2nnnn2-c2ccccc2)c(C(=O)O)n1	> 200	> 200	–
COC(=O)[C@H]1ON2O[C@@H](O[C@H]3CCCC[C@@H]3C(C)(C)c3ccccc3)C[C@@H]3CC[C@H]1[C@@]32C	> 200	> 200	–
C=CC[C@]1(C(C)C(OC(C)=O)c2ccc3c(c2)OCO3)C[C@@H](OC)C=CC1=O (stereo partly drawn)	> 20	1.48	–
O=c1c(Nc2ccccc2)cn(CCOc2ccccc2)c(=O)n1CCOc1ccccc1	> 200	> 200	–
CCOC(=O)Nn1c(C)cc(C(=O)OC)c1C	–	–	inactive

SMILES	EC50 [µM]	IC50 [µM]	outcome
CCN1CCC(O)(/C=C/c2ccc(Cl)cc2)C(C(=O)/C=C/c2ccc(Cl)cc2)C1 (stereo not drawn)	> 21.4	> 21.4	–
O=C(NCCCCN(CCCNC(=O)C(F)(F)F)Cc1ccccc1)C(F)(F)F	> 200	97.7	–
N#Cc1ncoc1N	> 200	> 200	–
CC(=O)O[C@H]1CC[C@@]2(C)C(=CC[C@@H]3C2CC[C@]2(C)Nc4[nH]ncc4CC32)C1 (stereo partly drawn)	–	–	inactive
CC(=O)N1CC(O)(c2ccccc2)CSc2ccccc21 (stereo not drawn)	> 107	> 107	–
CC(CC/C=C/CO)C1CC(OS(=O)(=O)O)C2(O)C1(C)CCC1C3CCC(O)C(O)C3C(O)CC12O (stereo not drawn)	–	–	inactive
Oc1ccc(C2CC(O)c3ccccc3O2)cc1 (stereo not drawn)	–	–	inactive
N#Cc1c2c(c(-c3cccs3)n(C3OC(CO)C(O)C(O)C3O)c1=S)CCc1ccccc1-2 (stereo not drawn)	–	–	inactive
O=c1[nH]c(=S)[nH]c2nc[nH]c12	> 200	> 200	–
COc1cc(/C=C/C(=O)OC[C@H](Br)[C@H](OC(C)=O)c2ccc3c(c2)OCO3)cc(OC)c1OC	> 200	47.9	–
N#Cc1ccc(N2CCOCC2)cc1	195	> 200	–
N#Cc1[nH]c(=S)[nH]c1N	> 200	117	–
CCOC(=O)c1nc2c(C)nc(N(C)C)nc2n(C)c1=O	> 200	> 200	–
C=C(Cn1cnc2c(N)ncnc21)C(=O)OC	> 107	7.76	–
C=C1C(=O)OC2/C=C(\C)C3OC3/C=C(/C(=O)OC)C(OC(C)=O)C(OC(=O)C(C)(O)C(C)OC(C)=O)C12 (stereo not drawn)	> 129	0.832	–
CCOC(=O)C1(C(=O)OCC)COC(C)(C)OC1	> 200	> 200	–
CC(=O)OC1COC(n2c3ccccc3c3ccc4c5ccccc5[nH]c4c32)C(OC(C)=O)C1OC(C)=O (stereo not drawn)	> 117	115	–
CN1CC=C(c2cccn2C)CC1	> 200	132	–
COc1ccc(S(=O)(=O)c2ccccc2[N+](=O)[O-])cc1	–	–	active
c1ccc2cc(CNCCCCNCCCNCc3ccc4ccccc4c3)ccc2c1	> 200	0.257	–
CN(C)c1nc(N(C)C)n2nc(-c3ccccc3[N+](=O)[O-])nc2n1	> 21.9	0.00708	–
Cc1cc(C)n2c(C)nnc2c1	> 1550	1120	–
N#CSc1nc[nH]c1C(N)=O	> 200	10	–

SMILES	EC50 [µM]	IC50 [µM]	outcome
CCCCCCCCOC(CO)CO	> 251	> 251	–
COc1ccc(Nc2cnc3cc(N)ccc3n2)cc1OC	> 603	42.7	–
CN(C)CCC(CCN(C)C)=NOC(=O)c1ccccc1	> 692	> 692	–
O=C1OC(c2ccccc2)=N/C1=C\c1ccc(Cl)cc1Cl	> 200	97.7	–
CCOC(=O)NC(N(C)C(C(C)C)P(=O)(OCC)OCC)(C(F)(F)F)C(F)(F)F (stereo not drawn)	> 200	> 200	–
O=C(O)c1c2c(c(C(=O)O)c3ccccc13)-c1ccccc1-2	–	–	inactive
COc1cc(Cl)c2c3c(c(C(C)=O)oc13)CCC2	–	–	inactive
CN1CCC2(CC1)OCCN2CCO	> 1260	> 1260	–
O=c1oc2ccccc2c(O)c1/C=N\c1nc(-c2ccc(O)c(O)c2)cs1	> 200	3.24	–
COc1cc2c(cc1OC)C(C(CO)CO)N(CC(O)CCl)CC2 (stereo not drawn)	> 692	> 692	–
COc1cc2cccc(OC)c(=O)c2c(O)c1OC	–	–	inactive
CCCCCCCCCCCCNC(=O)NCC(OCC)OCC	> 200	31.6	–
Cc1ccc(C(=O)n2nc(C)c(N=Nc3ccccc3)c2C)cc1	–	–	inactive
Cc1ccc(C(=O)/C=C/c2ccccc2O)c(C)c1	91.2	102	–
O=C1OC(=O)c2c1c(-c1ccccc1)nc1ccccc21	> 107	> 107	–
CC(C)N(C(=O)C12C3C4C1C1C2C3C41C#N)C(C)C (stereo not drawn)	> 513	> 513	–
O=C(CC1C=CCS1(=O)=O)NCc1ccccc1 (stereo not drawn)	> 97.7	> 97.7	–
COc1cc2oc(-c3ccc(O)cc3)cc(=O)c2c(OC)c1O	> 200	> 200	–
Cc1c2cc[nH]c(=O)c2cc2c(=O)c3cnccc3[nH]c12	> 1.95	> 1.95	–
CC(C)(C)C1CCC2c3c([nH]c4ccccc34)C3C(=O)N(c4cc(Cl)ccc4Cl)C(=O)C3C2C1 (stereo not drawn)	> 200	19.1	–
CCOC(=O)/C(C#N)=C/c1cccc(F)c1	> 162	> 162	–
COC1N(C2CC(N=[N+]=[N-])C(CO)O2)C(=O)NC(=O)C1(C)Cl (stereo not drawn)	6.61	891	–
